Measured values from US5981558A, “DC107 derivatives” (Kyowa Hakko Kogyo Co., Ltd., priority 1996, dated 1999).
Converted amounts (≈) assume the structure as drawn. Like-named read-outs stand apart in the source and are kept apart here.

Key:
[1] = tested on: Sarcoma 180 mouse solid tumor; assay: Antitumor activity against Sarcoma 180 mouse solid tumor; assay type: in vivo, mouse (ddY); details: Sarcoma-180, iv, 168 h; for response vs control in vivo at 16 mg/kg: 16 mg/kg i.v. once
Method: To a ddY mouse were intraperitoneally transplanted 5×10^6 sarcoma 180 cells. On the seventh day from the transplant, the cells were collected from the ascites, washed once with sterilized physiological saline, and then diluted with sterilized physiological saline to prepare a cell suspension having a concentration of 5×10^7 cells/mL. This suspension was transplanted in an amount of 0.01 mL to a subcutaneous part of the right axilla of each of male ddY mice each weighing 20±1 g.
A test compound was dissolved in physiological saline containing polyoxyethylene sorbitan monolaurate. At 24 hours after the tumor transplant, 0.2 mL of the solution was intravenously administered to the tail of each of a group of five mice.

HeLa S3 cells = assay: HeLa S3 Cell Growth Inhibition Test; assay type: cell-based
Outline: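 HeLa S3 cells seeded overnight in MEM with 10% FBS, then exposed to compound for 72 h at 37 °C. Viable cells stained with Neutral Red, dye extracted, absorbance read at 550 nm; IC50 derived against untreated cells.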

[2] = tested on: EH: Enterococcus hirae ATCC 10541; assay: Antimicrobial activity by the agar dilution method (MIC); assay type: cell-based; details: pH 7
Method: (§1) Antimicrobial activity was determined by the agar dilution method using a culture medium (pH 7) prepared by dissolving 3 g of Bacto-Tryptone (manufactured by Difco, Co.), 3 g of meat extract, 1 g of yeast extract, 1 g of glucose, and 16 g of agar in 1 l of water.

[3] = tested on: BS: Bacillus substilis No. 10707; assay: as above; assay type: cell-based
Method: as §1

[4] = tested on: SA: Staphylococcus aureus ATCC 6538P; assay: as above; assay type: cell-based; details: ATCC6538P
Method: as §1

[5] = tested on: KP: Klebisiella pneumoniae ATCC 10031; assay: as above; assay type: cell-based
Method: as §1

[6] = read-out: T/C (tumor volume ratio treated/control)
[7] = 8.0 mg/kg i.v. once, 24 hours after transplant, tumor volume on day 7, read-out: T/C (tumor volume ratio treated/control)
[8] = Homo sapiens, HeLa S3, 72 h, HeLa S3, 72 hours incubation, Neutral Red, read-out: IC50, HeLa S3 cell growth inhibition
[9] = Homo sapiens, HeLa S3, 72 h, read-out: IC50, HeLa S3 cell growth inhibition, HeLa S3, 72 hours incubation, Neutral Red
[10] = 4.0 mg/kg i.v. once, 24 hours after transplant, tumor volume on day 7, read-out: T/C (tumor volume ratio treated/control)
[11] = 24 hours after transplant, tumor volume on day 7, read-out: T/C (tumor volume ratio treated/control)
[12] = Bacillus, pH 7, read-out: minimum inhibitory concentration (MIC), BS
[13] = Staphylococcus aureus, pH 7, read-out: minimum inhibitory concentration (MIC), SA
[14] = pH 7, read-out: minimum inhibitory concentration (MIC), KP

Question: `CC1=CC(O)C(=O)C=CC=Cc2csc(n2)C(C)N2C(=O)CC(C(C)(O)C(=O)SCOC(=O)C3CCC(C(=O)O)CC3)(CC1)[S+]2[O-]` (stereo not shown) [Compound 11] was tested. Which response vs control in vivo at 4 mg/kg [1, 6] did it give?
Answer: The response vs control in vivo at 4 mg/kg was 48%.

Question: What about the IC50 (HeLa S3 cells; Homo sapiens, HeLa S3, 72 h, read-out: IC50, HeLa S3 cell growth inhibition, footnote *: Value after 72 hours of drug treatment) of the same compound?
Answer: Its IC50 is 0.1 µM.

Question: Which results are given for `COCCOCC(=O)OCc1oc(=O)oc1CSC(=O)C(C)(O)C12CC/C(C)=C/C(O)C(=O)/C=C/C=C\c3csc(n3)C(C)N(C(=O)C1)[S+]2[O-]` (stereo not shown) [Compound 99]?
Answer: response vs control in vivo at 8 mg/kg [1, 7]: 40%; IC50 (HeLa S3 cells; [8]): 0.087 µM

Question: How did the response vs control in vivo at 8 mg/kg [1, 6] turn out when `COC(=O)[C@H](CCC(=O)OCSC(=O)C(C)(O)C12CC/C(C)=C/C(OC3CCCCO3)C(=O)/C=C/C=C\c3csc(n3)C(C)N(C(=O)C1)[S+]2[O-])NC(=O)[C@@]12O[C@H]3COC(C)(C)O[C@H]3[C@@H]1OC(C)(C)O2` (single isomer, unassigned) [Compound 50] was run?
Answer: Its response vs control in vivo at 8 mg/kg is 41%.

Question: And the IC50 (HeLa S3 cells; [9])?
Answer: Its IC50 is 0.016 µM.

Question: Which results are given for `C/C1=C\C(OC2CCCCO2)C(=O)/C=C/C=C\c2csc(n2)C(C)N2C(=O)CC(C(C)(O)C(=O)SCOC(=O)CCNC(=O)[C@@]34O[C@@H](CO)[C@@H](O)[C@@H]3OC(C)(C)O4)(CC1)[S+]2[O-]` (stereo partly shown) [Compound 64]?
Answer: response vs control in vivo at 8 mg/kg [1, 6]: 43%; IC50 (HeLa S3 cells; [9]): 0.035 µM

Question: Which results are given for `COC(=O)NCC(=O)OCSC(=O)C(C)(O)C12CC/C(C)=C/C(OC3CCCCO3)C(=O)/C=C/C=C\c3csc(n3)C(C)N(C(=O)C1)[S+]2[O-]` (single isomer, unassigned) [Compound 41]?
Answer: response vs control in vivo at 4 mg/kg [1, 10]: 32%; IC50 (HeLa S3 cells; HeLa S3, 72 hours incubation, Neutral Red, read-out: IC50, HeLa S3 cell growth inhibition): 0.004 µM

Question: Which response vs control in vivo at 16 mg/kg [1, 11] does the source give for `CCOC(=O)N1CCC2(CC1)OC(=O)C(CSC(=O)C(C)(O)C13CC/C(C)=C/C(OC4CCCCO4)C(=O)/C=C/C=C\c4csc(n4)C(C)N(C(=O)C1)[S+]3[O-])=C(C)O2` (stereo not shown) [Compound 127] here?
Answer: Its response vs control in vivo at 16 mg/kg is 29%.

Question: And the IC50 (HeLa S3 cells; Homo sapiens, HeLa S3, 72 hours incubation, Neutral Red, read-out: IC50, HeLa S3 cell growth inhibition)?
Answer: The IC50 was 0.033 µM.

Question: With `COC(=O)[C@H](CCC(=O)OCSC(=O)C(C)(O)C12CC/C(C)=C/C(O)C(=O)/C=C/C=C\c3csc(n3)C(C)N(C(=O)C1)[S+]2[O-])NC(=O)[C@@]12O[C@@H](CO)[C@@H](O)[C@@H]1OC(C)(C)O2` (stereo partly shown) [Compound 60] as the compound, how does the response vs control in vivo at 8 mg/kg [1, 6] read?
Answer: Its response vs control in vivo at 8 mg/kg is 31%.

Question: What about the “minimum inhibitory concentration (MIC), EH” value [2] of the same compound?
Answer: The value was 7.3 mg/L (≈ 8.11 µM).

Question: What about the IC50 (HeLa S3 cells; [9]) of the same compound?
Answer: Its IC50 is 0.55 µM.

Question: And the MIC [3, 12]?
Answer: Its MIC is 15 mg/L (≈ 16.7 µM).

Question: And the MIC [4, 13]?
Answer: Its MIC is 15 mg/L (≈ 16.7 µM).

Question: And the MIC [5, 14]?
Answer: The MIC was 15 mg/L (≈ 16.7 µM).

Question: What does the source list for `COCCOCCOCC(=O)OCc1oc(=O)oc1CSC(=O)C(C)(O)C12CC/C(C)=C/C(O)C(=O)/C=C/C=C\c3csc(n3)C(C)N(C(=O)C1)[S+]2[O-]` (stereo not shown) [Compound 101]?
Answer: response vs control in vivo at 16 mg/kg [1, 11]: 27%; IC50 (HeLa S3 cells; [8]): 0.1 µM

Question: Which results are given for `C/C1=C\C(O)C(=O)/C=C/C=C\c2csc(n2)C(C)N2C(=O)CC(C(C)(O)C(=O)SCOC(=O)CCCN3CCCC3=O)(CC1)[S+]2[O-]` (stereo not shown) [Compound 145]?
Answer: response vs control in vivo at 4 mg/kg [1, 6]: 23%; minimum inhibitory concentration (MIC), EH [2]: 7.7 mg/L (≈ 11.1 µM); MIC [3, 12]: 7.7 mg/L (≈ 11.1 µM); MIC [4, 13]: 15 mg/L (≈ 21.6 µM); MIC [5, 14]: 7.7 mg/L (≈ 11.1 µM)

Question: `C/C1=C\C(O)C(=O)/C=C/C=C\c2csc(n2)C(C)N2C(=O)CC(C(C)(O)C(=O)SCc3oc(=O)oc3COC=O)(CC1)[S+]2[O-]` (stereo not shown) [Compound 88] was tested. Which response vs control in vivo at 8 mg/kg [1, 6] did it give?
Answer: The response vs control in vivo at 8 mg/kg was 49%.

Question: And the IC50 (HeLa S3 cells; [9])?
Answer: The IC50 was 0.32 µM.

Question: What does the source list for `COC(=O)NCC(=O)OCOC1C=C(C)CCC2(C(C)(O)C(=O)SCOC(=O)CNC(=O)OC)CC(=O)N(C(C)c3nc(cs3)C=CC=CC1=O)[S+]2[O-]` (stereo not shown) [Compound 18]?
Answer: response vs control in vivo at 4 mg/kg [1, 10]: 38%; minimum inhibitory concentration (MIC), EH [2]: 5.7 mg/L (≈ 7.12 µM); IC50 (HeLa S3 cells; [8]): 0.15 µM; MIC ([3]; Bacillus substilis No. 10707, agar dilution, pH 7, read-out: minimum inhibitory concentration (MIC), BS): 11 mg/L (≈ 13.7 µM); MIC ([4]; Staphylococcus aureus ATCC 6538P, agar dilution, pH 7, read-out: minimum inhibitory concentration (MIC), SA): 11 mg/L (≈ 13.7 µM); MIC ([5]; Klebisiella pneumoniae ATCC 10031, agar dilution, pH 7, read-out: minimum inhibitory concentration (MIC), KP): 2.9 mg/L (≈ 3.62 µM)

Question: Which response vs control in vivo at 8 mg/kg [1, 7] does the source give for `C=C(CSC(=O)C(C)(O)C12CC/C(C)=C/C(OC3CCCCO3)C(=O)/C=C/C=C\c3csc(n3)C(C)N(C(=O)C1)[S+]2[O-])C(=O)OC` (stereo not shown) [Compound 112] here?
Answer: The response vs control in vivo at 8 mg/kg was 24%.

Question: What about the IC50 (HeLa S3 cells; [8]) of the same compound?
Answer: The IC50 was 0.064 µM.

Question: For `CC1=CC(O)C(=O)C=CC=Cc2csc(n2)C(C)N2C(=O)CC(C(C)(O)C(=O)SCOC(=O)CNC(=O)OC(C)(C)C)(CC1)[S+]2[O-]` (stereo not shown) [Compound 16], which response vs control in vivo at 2 mg/kg [1, 6] is on record?
Answer: Its response vs control in vivo at 2 mg/kg is 47%.

Question: And the IC50 (HeLa S3 cells; [9])?
Answer: The IC50 was 0.0061 µM.
